This note sets out measurements from US7112590B2, “Thrombin inhibitors” (LEK Pharmaceuticals d.d., priority 2000, dated 2006).

In data set [1] the test system is normal pooled human plasma. The experiment in a line: Thrombin time (TT) coagulation assay. The format is biochemical. Conditions: concentration of inhibitor that doubled the clotting time, bovine thrombin reagent. The protocol: (§1) The Anticoagulant effect of thrombin inhibitors was measured by thrombin time (TT), activated partial thromboplastin time (aPTT), and prothrombin time (PT) assays. Inhibitors were added to normal pooled human plasma over a range of concentrations and clotting was recorded in an automated coagulometer (Fibrintimer, Dade/Behring). The concentration of inhibitor that doubled the clotting time was determined for each assay.
In a plasma sample thrombin converts fibrinogen into fibrin and the clot is formed. The time for clot formation was measured. Thrombin time is prolonged due to disorders in fibrin polymerisation or due to the presence of thrombin inhibitors.
Thrombin (Test Thrombin Reagent, 1.5 IU/mL, Dade/Behring): lyophilized bovine thrombin was dissolved in 5 mL of HEPES (25 mmol/L, pH 7.4). The reagent was warmed to 37° C. prior to the assay.
(§2) Normal pooled plasma: venous blood from 11 apparently healthy volunteers was collected (1 part 0.11 mol/L sodium citrate solution with 9 parts of blood) and centrifuged immediately at 2000×g for 30 minutes at 4° C. Plasma was removed, pooled and stored in aliquots at −70° C. until use.
(§3) Inhibitors: were dissolved in DMSO (10 mM stock solution) and diluted with distilled water to working solutions (the highest concentration 100 μM).
Inhibitors (10 μL working solution, concentrations from 2.5 μM to 100 μM) and pooled plasma (90 μL) were incubated at 37° C. for 5 minutes and then thrombin (200 μL) was added. Clot formation was measured in a coagulometer in duplicate.

Data set [2] relates to normal pooled human plasma. The experiment in a line: Activated partial thromboplastin time (aPTT) coagulation assay. Conditions: concentration of inhibitor that doubled the clotting time. In kind it is biochemical. The protocol:
as §1
2. Activated Partial Thromboplastin Time (aPTT)
Incubation of plasma with the optimal quantity of phospholipids and a surface activator leads to activation of factors of the intrinsic coagulation pathway. The addition of calcium ions triggers the coagulation process. The time of fibrin clot formation wass measured. aPTT was used as a screening test for coagulation disorders of the intrinsic coagulation pathway. It is prolonged due to intrinsic coagulation factors deficit or due to the presence of inhibitors.
Pathromtin SL (Dade/Behring): silicon dioxide particles, vegetable phospholipids, sodium chloride (2.4 g/L), Hepes (14.3 g/L, pH 7.6), sodium azide (<1 g/L). The reagent was used at room temperature (15–25° C.).
Calcium chloride solution: 0.025 mol/L, warmed to 37° C.
as §2, §3
Inhibitor (10 μL working solution, concentrations from 5 μM to 100 μM) and pooled plasma (90 μL) were incubated at 37° C. for 5 minutes. Pathromtin (100 μL) was added and the sample was incubated for another 2 minutes at 37° C. The addition of calcium chloride (100 μL) triggered the coagulation process and clot formation was detected with a coagulometer in duplicate.

The target of data set [3] is T1, trypsin (UniProt P00760).
T1 construct: Trypsin (6000 E/mg prot; Sigma): dissolved in distilled water to give a stock solution of 300 E/mL
T1 sequence (P00760 1-246): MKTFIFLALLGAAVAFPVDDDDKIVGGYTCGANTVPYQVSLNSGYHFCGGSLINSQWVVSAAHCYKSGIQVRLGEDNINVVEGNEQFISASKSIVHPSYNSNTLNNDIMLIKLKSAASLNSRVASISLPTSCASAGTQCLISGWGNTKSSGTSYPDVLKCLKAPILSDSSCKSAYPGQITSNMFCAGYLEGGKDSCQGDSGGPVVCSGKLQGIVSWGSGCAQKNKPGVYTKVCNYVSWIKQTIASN
Briefly: Determination of trypsin Ki (chromogenic substrate S-2222). The format is biochemical. The settings on record: substrate S-2222, pH 7.5, 25° C. The protocol: (§4) The enzyme inhibitory effect of the compounds can be identified by determination of inhibition constant Ki. It denotes the degree of dissociation of the enzyme-inhibitor complex. Low dissociation constant means high potency of inhibitor. Ki can be determined during reaction of the enzyme with a specific chromogenic substrate which under hydrolysis by the enzyme develops color. Reaction in time is recorded by spectrophotometry and Ki is calculated from kinetic parameters (Vmax, Km, reaction rate).
2. Determination of Trypsin Ki
The ability of a compound to act as an inhibitor of trypsin catalytic activity was assessed by determination of Ki.
(§5) Buffer: HBSA, pH 7.5 (10 mM Hepes, 150 mM NaCl, 0.1% w/v bovine serum albumin)
Substrate (S-2222: N-benzoyl-Ile-Glu-Gly-Arg-pNA HCl, 25 mg; Chromogenix): dissolved in distilled water to 2 mM concentration. (Km is 21 μM)
Trypsin (6000 E/mg prot.; Sigma): dissolved in distilled water to give a stock solution of 300 E/mL.
Inhibitors: were dissolved in DMSO (10 mM stock solution) and diluted with distilled water to working solution (the highest final concentration of DMSO was 10%).
50 μL of buffer, 50 μL of test compound in water (final concentrations from 50 to 300 μM) and 50 μL of trypsin (3 mE/mL f.c.) were incubated for 15 minutes at room temperature. The reaction was started with 50 μL of S-2222 (50 μM or 100 μM f.c.) and the absorbance of each sample at 405 nm (at 25° C.) was measured in triplicates every 10 seconds for a period of 15 minutes using a microtiter plate reader (Tecan Sunrise).
Trypsin activity was determined from the change in absorbance in the linear part of velocity graph. Ki was calculated according to Cheng and Prussof (Biochem Pharmacol, 1973) where Ki is, IC50/(1+S/Km). The Km for the substrate was determined under test conditions with at least 6 substrate concentrations varying around Km and calculated with the non-linear regression program Curve expert.

For data set [4], the target named is T2, human thrombin (Homo sapiens, UniProt P00734).
T2 construct: Human thrombin (308 NIH; Sigma); purchased Sigma
The experiment in a line: Determination of thrombin Ki (chromogenic substrate S-2238). Conditions: for Ki: human thrombin, substrate S-2238, pH 7.5, 25° C.; for Ki trypsin/ Ki thrombin: selectivity: ratio of Ki for trypsin to Ki for thrombin. The format is biochemical. The protocol:
as §4
1. Determination of Thrombin Ki
The ability of a compound to act as an inhibitor of human thrombin catalytic activity was assessed by determination of Ki.
as §5
Substrate (S-2238: H-D-Phe-Pip-Arg-pNA HCl, 25 mg; Chromogenix): dissolved in distilled water to 1 mM concentration.
Human thrombin (308 NIH; Sigma): dissolved in saline to give a stock solution of 20 NIH/mL.
Inhibitors: were dissolved in DMSO (10 mM stock solution) and diluted with distilled water to working solutions (the highest final concentration of DMSO was 3%).
A mixture of 50 μL of buffer, 50 μL of inhibitor in water (final concentrations from 10 to 100 μM) and 50 μL of thrombin (0.5 NIH U/mL f.c.) was incubated for 15 minutes at room temperature. The reaction was started with 50 μL of S-2238 (20 μM or 40 μM f.c.) and the absorbance of each sample at 405 nm (at 25° C.) was measured in triplicate every 10 seconds for a period of 15 minutes using a microtiter plate reader (Tecan Sunrise).
Thrombin activity was determined from the change in absorbance in the linear part of the velocity graph. Ki was calculated according to Cheng and Prussof (Biochem Pharmacol, 1973) where Ki is IC50/(1+S/Km). The Km for the substrate was determined under the test conditions with at least 6 substrate concentrations varying around Km and calculated with the non-linear regression programme Curve expert.
3. Selectivity to Thrombin
By the use of other serine protease like trypsin with the appropriate chromogenic substrate, selectivity of inhibitors with respect to thrombin was determined. Selectivity of an inhibitor is expressed as a ratio of Ki for trypsin to Ki for thrombin.

The test system of data set [5] is normal pooled human plasma. Briefly: Prothrombin time (PT) coagulation assay. In kind it is biochemical. The settings on record: concentration of inhibitor that doubled the clotting time. The protocol:
as §1
An optimal amount of thromboplastin and calcium are added to plasma sample and the time of fibrin clot formation wass measured. PT is a rapid, sensitive screening test for coagulation disorders of the extrinsic pathway. It is well suited for the induction and monitoring of oral anticoagulant therapy, for diagnosing genetic or acquired deficiencies in coagulation factors and checking the synthesis performance of the liver in hepatic diseases. PT is prolonged due to extrinsic coagulation factors deficit or due to the presence of inhibitors.
Thromboplastin (Thromborel S, Dade/Behring): was dissolved in 4 mL of distilled water. Reagent was at 37° C. prior to use at least 30 minutes.
as §2, §3
Inhibitor (10 μL working solution, concentrations from 5 μM to 100 μM) and pooled plasma (90 μL) were incubated at 37° C. for 5 minutes and then Thromborel S (200 μL) was added. Clot formation was measured with a coagulometer in duplicate.

As usually defined, the Ki is a measure of affinity in units of concentration, obtained from inhibition or displacement. Read a low Ki as higher affinity. Molecule `O=C(NCC1CCc2n[nH]cc2C1)[C@@H]1CCCN1C(=O)[C@@H](CC1CCCCC1)NS(=O)(=O)Cc1ccccc1` (stereo partly drawn) [drawing 92] returned a TT in data set [1] of 11 µM. This molecule came in with an aPTT in data set [2] of 42.3 µM. Besides, in data set [3], the affinity, expressed as Ki, was 177 µM. Besides, in data set [4], the inhibitory constant (Ki) stood at 0.14 µM and the “Ki trypsin/ Ki thrombin” value amounted to 1267. Moreover, the PT in data set [5] amounted to 78.3 µM.

As to `NC(C(=O)N1CCCC1C(=O)NCC1CCc2n[nH]cc2C1)C(c1ccccc1)c1ccccc1` (stereo not drawn), in data set [3], the Ki was found to be 217 µM.

For the molecule `Nc1nc2c(s1)CC(CNC(=O)[C@@H]1CCCN1C(=O)[C@@H](CC1CCCCC1)NS(=O)(=O)Cc1ccccc1)CC2` (stereo partly drawn) [drawing 95], the TT in data set [1] came to 15.8 µM. Also, the aPTT in data set [2] worked out at 64 µM. Further, the Ki in data set [3] came out at 39.9 µM; in data set [4], 0.37 µM. The “Ki trypsin/ Ki thrombin” value in data set [4] is reported as 107.8. Besides, the PT in data set [5] is 95.3 µM.

In data set [1], `Nc1nc2c(s1)CC(NC(=O)[C@@H]1CCCN1C(=O)[C@@H](Cc1ccccc1)NS(=O)(=O)Cc1ccccc1)CC2` (stereo partly drawn) [drawing 96] came in with a TT of 84 µM. Moreover, the aPTT in data set [2] turned out to be 332 µM. Moreover, the results for the Ki in data set [3] and in data set [4] were over 68.3 µM and 0.62 µM, respectively. Further, in data set [4], the “Ki trypsin/ Ki thrombin” value was over 110. This molecule registered a PT in data set [5] of 578 µM.

In data set [1], `O=C(O)CN[C@H](CC1CCCCC1)C(=O)N1CCC[C@H]1C(=O)NCC1CCc2n[nH]cc2C1` (stereo partly drawn) gave a TT of 4.9 µM. The aPTT in data set [2] amounted to 28 µM. Further, in data set [3], affinity was put at a Ki of 19.9 µM. Besides, in data set [4], affinity was put at a Ki of 0.28 µM and the “Ki trypsin/ Ki thrombin” value came to 70.6. In data set [5], this molecule displayed a PT of 55.3 µM.

`Nc1nc2c(s1)CC(NC(=O)[C@@H]1CCCN1C(=O)[C@@H](CC1CCCCC1)NS(=O)(=O)Cc1ccccc1)CC2` (stereo partly drawn) [drawing 91] gave a TT in data set [1] of 15 µM. The molecule also registered an aPTT in data set [2] of 59 µM. This molecule also gave a Ki in data set [3] of over 68.3 µM. Also, in data set [4], the Ki was 0.12 µM and the “Ki trypsin/ Ki thrombin” value is reported as over 569. The molecule also gave a PT in data set [5] of 114 µM.

By melting point is commonly meant the temperature, or range, at which the solid turns liquid. For `CC(C)(C)OC(=O)N[C@H](Cc1ccc(Cl)c(Cl)c1)C(=O)N1CCC[C@H]1C(=O)NCC1CCc2nc(N)ncc2C1` (stereo partly drawn) [Example 61, tert-Butyl (1R)-2-[(2S)-2-({[(2-amino-5,6,7,8-tetrahydro-6-quinazolinyl)methyl]amino}carbonyl)pyrrolidinyl]1-(3,4dichlorobenzyl)-2-oxoethylcarbamate], the melting point lay in the range of 110 to 113 °C.

For the molecule `O=C(NC1CCc2n[nH]cc2C1)[C@@H]1CCCN1C(=O)[C@@H](CC1CCCCC1)NS(=O)(=O)Cc1ccccc1` (stereo partly drawn) [Example 22, (2S)-1-{(2R)-2-[(Benzylsulfonyl)amino]-3-cyclohexylpropanoyl}-N-(4,5,6,7-tetrahydro-2H-indazol-5-yl)-2-pyrrolidinecarboxamide], the melting point was 106 to 109 °C.
